Series [1] deals with T1, Hb (Homo sapiens, UniProt P68871+P69905, E7V).
T1 construct: Leftover blood samples from patients with homozygous SS were obtained and utilized; from tissue; host or cells: blood (red blood cells) of patients with homozygous SS
The experiment in a line: Hb oxygen equilibrium study (P50 shift, Hemox Analyzer) on lysate of treated SS cells. The series is classed as cell-based. Particulars: intact SS cells, read-out: increase in Hb oxygen affinity (ΔP50); for percent P50 decrease (increase in Hb oxygen affinity) at 2000 µM: 2 mM compound; for percent P50 decrease (increase in Hb oxygen affinity) at 5000 µM: 5 mM compound. An excerpt: (§1) In vitro Hemoglobin Modification, Oxygen Equilibrium and Antisickling Studies Using Human homozygous Sickle cell (SS) Blood
(§2) Materials and General Procedure: Leftover blood samples from patients with homozygous SS were obtained and utilized, based on an approved IRB protocol at the Children's Hospital of Philadelphia, with informed consent.
(§3) Experimental Procedure: The MMA series of compounds (MMA-202, MMA-204, and MMA-405) and the positive control vanillin were studied for their abilities to inhibit hypoxia-induced RBC sickling (RBC morphology study), increase Hb oxygen, and/or modify Hb (adduct formation) as previously published.^31,33 Briefly, homozygous SS blood (hematocrit: 20%) suspensions were incubated under air in the absence or presence of 2 and/or 5 mM concentration of test compounds at 37° C. for 1 hr. Following, the suspensions were incubated under hypoxic condition (2.5% oxygen) at 37° C. for 2 hr. Aliquot samples were fixed with 2% glutaraldehyde solution without exposure to air, and then subjected to microscopic morphological analysis. The residual samples were washed in phosphate-buffered saline, and hemolyzed in hypotonic lysis buffer for the Hb oxygen equilibrium and Hb adduct experiments. […] Another aliquot from the lysate was also subjected to Hb adduct formation study using cation-exchange HPLC (Hitachi D-7000 Series, Hitachi Instruments, Inc., San Jose, Calif.) with a weak cation-exchange column (Poly CAT A: 30 mm×4.6 mm, Poly LC, Inc., Columbia, Md.). To determine the binding of the MMA compounds to either α- or β-globin chains, the hemolysates were subjected to reversed-phase (RP) HPLC on a Hitachi D-7000 HSM Series, using a Jupiter 5 μm C-4 50×4.6 mm column, (Phenomenex®, Torrence, Calif.) and a gradient from 20% to 60% acetonitrile in 0.3% trifluoroacetic acid in 15 minutes, with UV detection at 215 nm.

In series [2] the test system is intact SS cells. The experiment in a line: Antisickling study (RBC morphology) under hypoxia with homozygous SS blood. The series is classed as cell-based, human. Particulars: SS blood hematocrit 20%, 2.5% oxygen, 37° C., 2 hr. On the procedure:
as §1, §2
as §3, with “Following,” for “Experimental Procedure: The MMA series of compounds (MMA-202, MMA-204, and MMA-405) and the positive control vanillin were studied for their abilities to inhibit hypoxia-induced RBC sickling (RBC morphology study), increase Hb oxygen, and/or modify Hb (adduct formation) as previously published.^31,33 Briefly, homozygous SS blood (hematocrit: 20%) suspensions were incubated under air in the absence or presence of 2 and/or 5 mM concentration of test compounds at 37° C. for 1 hr. Following,”

Series [3] concerns the target T2, α- or β-globin chains (Homo sapiens, UniProt P68871+P69905, E7V).
T2 construct: Leftover blood samples from patients with homozygous SS were obtained and utilized; from tissue; host or cells: blood (red blood cells) of patients with homozygous SS
The series can be described thus: Reversed-phase HPLC of hemolysates for binding to α- or β-globin chains. The series is classed as cell-based. The conditions noted are these: reverse-phase HPLC; 2 mM and/or 5 mM; intact SS cells. On the procedure:
as §3

Series [4] addresses T1, Hb. The experiment in a line: Hb adduct formation study by cation-exchange HPLC after incubation with intact SS cells. The series is classed as cell-based. Particulars: 2 mM and/or 5 mM. On the procedure: as §3, with “To determine the binding of the MMA compounds to either α- or β-globin chains, the hemolysates were subjected to reversed-phase (RP) HPLC on a Hitachi D-7000 HSM Series, using a Jupiter 5 μm C-4 50×4.6 mm column, (Phenomenex®, Torrence, Calif.) and a gradient from 20% to 60% acetonitrile in 0.3% trifluoroacetic acid in 15 minutes, with UV detection at 215 nm.” left out

Series [5] addresses Hb (Homo sapiens, UniProt P68871+P69905). The series can be described thus: In vitro time-dependent Hb oxygen equilibrium study using normal whole blood. The conditions noted are these: 2 mM; normal whole blood 30% hct; 37° C.; 1, 4 and 24 hr.
The conditions of series [6]: in-vivo; aldehyde protected by L-cysteine; cited from earlier work.

The melting point is the temperature of the solid-liquid transition. For the compound `COC(=O)C(=O)c1ccc(OC)cc1` [MMA-201, methyl 2-(4-methoxyphenyl)-2-oxoacetate], the melting point turned out to be 49 °C.
In the case of `C=CC(=O)c1ccc(OC)cc1` [MMA-202, 1-(4-methoxyphenyl)prop-2-en-1-one], in series [1], the percent P50 decrease (increase in Hb oxygen affinity) at 2000 µM amounted to 13%. Further, the percent P50 decrease (increase in Hb oxygen affinity) at 5000 µM in series [1] was found to be 51%. Also, the RBC sickling in series [2] (1 mM compound) came out at 48%; in series [2] (2 mM compound), 28%; in series [2] (5 mM compound), 15%. Also, the globin chain bound result in series [3] was “bind to both the α-chain and β-chain”. For the same compound, in series [4], the “Hb modification (adduct formation)” value was “significant Hb modification”. In series [5], the “time course of Hb oxygen affinity activity (% P50 shift) over 24 hr” value is reported as “sustained throughout the 24 hr experiment”.
Compound `COc1ccc(C(=O)C(N)=O)cc1` [MMA-203, 2-(4-methoxyphenyl)-2-oxoacetamide] came in with a melting point of 146 °C.
For the compound `C#CC(=O)c1ccc(OC)cc1` [MMA-204, 1-(4-methoxyphenyl)prop-2-yn-1-one], in series [1], the percent P50 decrease (increase in Hb oxygen affinity) at 2000 µM turned out to be 29% and the percent P50 decrease (increase in Hb oxygen affinity) at 5000 µM worked out at 62%. The same compound displayed an RBC sickling in series [2] (2 mM compound) of 57%. The RBC sickling in series [2] (5 mM compound) is 44%. Moreover, the globin chain bound result in series [3] was “bind exclusively with the β-chain”.
For `C=CC(=O)c1ccc(OC2CCCCO2)cc1` (centres unmarked) [MMA-205, 1-(4-((tetrahydro-2H-pyran-2-yl)oxy)phenyl)prop-2-en-1-one], in series [1], the percent P50 decrease (increase in Hb oxygen affinity) at 2000 µM came to 21% and the percent P50 decrease (increase in Hb oxygen affinity) at 5000 µM was found to be 39%. The same compound displayed an RBC sickling in series [2] (2 mM compound) of 46%. For the same compound, in series [2] (5 mM compound), the RBC sickling came to 27%. The globin chain bound entry in series [3] was “bind exclusively with the β-chain”. Also, the “Hb modification (adduct formation)” value in series [4] is “significant Hb modification”.
With `COc1cc(C2NC(C(=O)O)CS2)ccc1O` (centres unmarked) [thiazolidine complex of Vanillin], in series [6], the “extension of Vanillin half-life” value is on record as 2 fold.
With `COc1cc(C=O)ccc1O` [vanillin], the percent P50 decrease (increase in Hb oxygen affinity) at 2000 µM in series [1] was determined as 12%. In series [1], the percent P50 decrease (increase in Hb oxygen affinity) at 5000 µM stood at 27%. Besides, the values for the RBC sickling in series [2] (2 mM compound) and in series [2] (5 mM compound) were 57% and 36%, respectively.

Source of the values: patent publication US11104632B1, “Metabolically stable vanillin derivatives for the treatment of hypoxia” (King Abdulaziz University, priority 2020, dated 2021).
